Source: patent publication US20230074545A1, “TREATMENT OF CANCER WITH CDK12/13 INHIBITORS” (Kinnate Biopharma Inc., priority 2019, published 2023)

Legend:
Experiment in all cases: Radiometric kinase panel
Format in all cases: biochemical
PAK6 = biological target: T1, PAK6 (Homo sapiens, UniProt Q9NQU5)
T1 construct: either as full-length or enzymatically active fragments; purchased ProQinase GmbH (Reaction Biology)
Outline: (§1)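 Activity was measured radiometrically from [gamma-33P]-ATP incorporation into substrate. The kinases were recombinant human GST- or His-tagged proteins, full-length or active fragments, expressed in Sf9 or E. coli. Compound in 10% DMSO was added before the enzyme/substrate mix, which started the reaction.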

GSG2 = biological target: T2, GSG2 (Homo sapiens, UniProt Q8TF76)
T2 construct: either as full-length or enzymatically active fragments; purchased ProQinase GmbH (Reaction Biology); host or cells: Sf9 insect cells or E. coli
Outline: as §1

INSR = biological target: T3, INSR (Homo sapiens, UniProt P06213)
T3 construct: either as full-length or enzymatically active fragments; purchased ProQinase GmbH (Reaction Biology); host or cells: Sf9 insect cells or E. coli (not specified per kinase)
Outline: as §1

MATK = biological target: T4, MATK (Homo sapiens, UniProt P42679)
T4 construct: purchased ProQinase GmbH (Reaction Biology)
Outline: as §1

DAPK2 = biological target: T5, DAPK2 (Homo sapiens, UniProt Q9UIK4)
T5 construct: either as full-length or enzymatically active fragments; purchased ProQinase GmbH (Reaction Biology); host or cells: Sf9 insect cells or E. coli (not specified per kinase)
Outline: as §1

IRAK4 = biological target: T6, IRAK4 (Homo sapiens, UniProt Q9NWZ3)
T6 construct: purchased ProQinase GmbH (Reaction Biology)
Outline: as §1

CDC7/DBF4 = biological target: T7, CDC7/DBF4 (Homo sapiens, UniProt O00311)
T7 construct: purchased ProQinase GmbH (Reaction Biology)
Outline: as §1

SGK3 = biological target: T8, SGK3 (Homo sapiens, UniProt Q96BR1)
T8 construct: either as full-length or enzymatically active fragments; purchased ProQinase GmbH (Reaction Biology)
Outline: as §1

CDK9/CycT1 = biological target: T9, CDK9/CycT1 (Homo sapiens, UniProt P50750)
T9 construct: either as full-length or enzymatically active fragments; purchased ProQinase GmbH (Reaction Biology)
Outline: as §1

HIPK4 = biological target: T10, HIPK4 (Homo sapiens, UniProt Q8NE63)
T10 construct: either as full-length or enzymatically active fragments; purchased ProQinase GmbH (Reaction Biology); host or cells: Sf9 insect cells or E. coli
Outline: as §1

FLT3 = biological target: T11, FLT3 (Homo sapiens, UniProt P36888)
T11 construct: either as full-length or enzymatically active fragments; purchased ProQinase GmbH (Reaction Biology)
Outline: as §1

DAPK3 = biological target: T12, DAPK3 (Homo sapiens, UniProt O43293)
T12 construct: purchased ProQinase GmbH (Reaction Biology)
Outline: as §1

ZAK = biological target: T13, ZAK (Homo sapiens, UniProt Q9NYL2)
T13 construct: either as full-length or enzymatically active fragments; purchased ProQinase GmbH (Reaction Biology)
Outline: as §1

FYN = biological target: T14, FYN (Homo sapiens, UniProt P06241)
T14 construct: purchased ProQinase GmbH (Reaction Biology)
Outline: as §1

ERK1 = biological target: T15, ERK1 (Homo sapiens, UniProt P27361)
T15 construct: either as full-length or enzymatically active fragments; purchased ProQinase GmbH (Reaction Biology)
Outline: as §1

PIM1 = biological target: T16, PIM1 (Homo sapiens, UniProt P11309)
T16 construct: either as full-length or enzymatically active fragments; purchased ProQinase GmbH (Reaction Biology)
Outline: as §1

CK1gamma1 = biological target: T17, CK1gamma1 (Homo sapiens, UniProt Q9HCP0)
T17 construct: either as full-length or enzymatically active fragments; purchased ProQinase GmbH (Reaction Biology)
Outline: as §1

PRKG2 = biological target: T18, PRKG2 (Homo sapiens, UniProt Q13237)
T18 construct: either as full-length or enzymatically active fragments; purchased ProQinase GmbH (Reaction Biology)
Outline: as §1

GRK7 = biological target: T19, GRK7 (Homo sapiens, UniProt Q8WTQ7)
T19 construct: either as full-length or enzymatically active fragments; purchased ProQinase GmbH (Reaction Biology)
Outline: as §1

SIK2 = biological target: T20, SIK2 (Homo sapiens, UniProt Q9H0K1)
T20 construct: either as full-length or enzymatically active fragments; purchased ProQinase GmbH (Reaction Biology)
Outline: as §1

PKCbeta1 = biological target: T21, PKCbeta1 (Homo sapiens, UniProt P05771)
T21 construct: either as full-length or enzymatically active fragments; purchased ProQinase GmbH (Reaction Biology)
Outline: as §1

PASK = biological target: T22, PASK (Homo sapiens, UniProt Q96RG2)
T22 construct: either as full-length or enzymatically active fragments; purchased ProQinase GmbH (Reaction Biology)
Outline: as §1

YES = biological target: T23, YES (Homo sapiens, UniProt P07947)
T23 construct: either as full-length or enzymatically active fragments; purchased ProQinase GmbH (Reaction Biology)
Outline: as §1

TSF1 = biological target: T24, TSF1 (Homo sapiens, UniProt O75716)
T24 construct: either as full-length or enzymatically active fragments; purchased ProQinase GmbH (Reaction Biology)
Outline: as §1

RIPK2 = biological target: T25, RIPK2 (Homo sapiens, UniProt O43353)
T25 construct: either as full-length or enzymatically active fragments; purchased ProQinase GmbH (Reaction Biology)
Outline: as §1

SAK = biological target: T26, SAK (Homo sapiens, UniProt O00444)
T26 construct: either as full-length or enzymatically active fragments; purchased ProQinase GmbH (Reaction Biology)
Outline: as §1

PAK4 = biological target: T27, PAK4 (Homo sapiens, UniProt O96013)
T27 construct: either as full-length or enzymatically active fragments; purchased ProQinase GmbH (Reaction Biology)
Outline: as §1

CAMKID = biological target: T28, CAMKID (Homo sapiens, UniProt Q8IU85)
T28 construct: purchased ProQinase GmbH (Reaction Biology)
Outline: as §1

GRK4 = biological target: T29, GRK4 (Homo sapiens, UniProt P32298)
T29 construct: either as full-length or enzymatically active fragments; purchased ProQinase GmbH (Reaction Biology)
Outline: as §1

CK2alpha2 = biological target: T30, CK2alpha2 (Homo sapiens, UniProt P19784)
T30 construct: either as full-length or enzymatically active fragments; purchased ProQinase GmbH (Reaction Biology)
Outline: as §1

PLK3 = biological target: T31, PLK3 (Homo sapiens, UniProt Q9H4B4)
T31 construct: either as full-length or enzymatically active fragments; purchased ProQinase GmbH (Reaction Biology); host or cells: Sf9 insect cells or E. coli
Outline: as §1

T14 sequence (P06241 whole entry): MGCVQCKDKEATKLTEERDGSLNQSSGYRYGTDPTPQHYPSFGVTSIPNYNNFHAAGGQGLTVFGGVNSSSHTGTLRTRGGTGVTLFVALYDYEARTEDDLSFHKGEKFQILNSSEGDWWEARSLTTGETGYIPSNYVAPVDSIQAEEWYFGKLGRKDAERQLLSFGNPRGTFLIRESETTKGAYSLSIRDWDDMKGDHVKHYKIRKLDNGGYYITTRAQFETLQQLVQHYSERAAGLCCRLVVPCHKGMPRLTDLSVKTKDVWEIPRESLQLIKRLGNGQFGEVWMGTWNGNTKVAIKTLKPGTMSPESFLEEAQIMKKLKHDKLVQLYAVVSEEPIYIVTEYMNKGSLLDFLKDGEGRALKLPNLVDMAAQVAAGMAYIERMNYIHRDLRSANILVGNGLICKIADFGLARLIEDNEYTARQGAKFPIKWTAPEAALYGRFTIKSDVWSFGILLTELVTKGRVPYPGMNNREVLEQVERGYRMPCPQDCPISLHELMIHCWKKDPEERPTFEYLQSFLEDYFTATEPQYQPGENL
T28 sequence (Q8IU85 whole entry): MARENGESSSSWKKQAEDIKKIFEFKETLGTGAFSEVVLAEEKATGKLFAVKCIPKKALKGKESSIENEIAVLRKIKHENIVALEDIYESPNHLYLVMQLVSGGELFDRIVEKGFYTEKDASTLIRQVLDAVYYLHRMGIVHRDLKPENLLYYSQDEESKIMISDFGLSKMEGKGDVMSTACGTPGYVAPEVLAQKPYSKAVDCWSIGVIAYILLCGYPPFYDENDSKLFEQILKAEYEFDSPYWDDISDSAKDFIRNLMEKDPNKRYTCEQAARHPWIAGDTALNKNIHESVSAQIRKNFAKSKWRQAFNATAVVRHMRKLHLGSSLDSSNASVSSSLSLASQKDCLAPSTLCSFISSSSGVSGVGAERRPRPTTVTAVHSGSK
T13 sequence (Q9NYL2 whole entry, the tested form may be a part): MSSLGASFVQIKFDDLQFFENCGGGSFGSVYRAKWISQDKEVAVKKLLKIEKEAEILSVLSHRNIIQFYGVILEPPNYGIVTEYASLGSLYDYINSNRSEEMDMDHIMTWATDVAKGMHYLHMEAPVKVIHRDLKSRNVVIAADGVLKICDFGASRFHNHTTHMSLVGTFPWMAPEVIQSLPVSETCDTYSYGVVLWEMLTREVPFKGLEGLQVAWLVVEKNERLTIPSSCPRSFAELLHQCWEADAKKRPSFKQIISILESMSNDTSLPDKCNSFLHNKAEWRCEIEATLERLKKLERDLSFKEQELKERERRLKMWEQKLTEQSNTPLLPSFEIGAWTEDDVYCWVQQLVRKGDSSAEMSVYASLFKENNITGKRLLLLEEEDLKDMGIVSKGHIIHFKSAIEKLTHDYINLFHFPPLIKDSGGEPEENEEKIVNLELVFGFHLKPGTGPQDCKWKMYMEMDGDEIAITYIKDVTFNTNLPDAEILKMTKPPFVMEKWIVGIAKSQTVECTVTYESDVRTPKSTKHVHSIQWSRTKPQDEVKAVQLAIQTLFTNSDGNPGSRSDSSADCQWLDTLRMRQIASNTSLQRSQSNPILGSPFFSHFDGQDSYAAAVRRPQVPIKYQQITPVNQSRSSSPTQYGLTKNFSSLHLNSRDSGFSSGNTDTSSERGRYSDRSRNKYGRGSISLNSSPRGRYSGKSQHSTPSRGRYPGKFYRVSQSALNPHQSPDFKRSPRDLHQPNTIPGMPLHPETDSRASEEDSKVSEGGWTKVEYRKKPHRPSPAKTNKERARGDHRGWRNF
T25 sequence (O43353 whole entry, the tested form may be a part): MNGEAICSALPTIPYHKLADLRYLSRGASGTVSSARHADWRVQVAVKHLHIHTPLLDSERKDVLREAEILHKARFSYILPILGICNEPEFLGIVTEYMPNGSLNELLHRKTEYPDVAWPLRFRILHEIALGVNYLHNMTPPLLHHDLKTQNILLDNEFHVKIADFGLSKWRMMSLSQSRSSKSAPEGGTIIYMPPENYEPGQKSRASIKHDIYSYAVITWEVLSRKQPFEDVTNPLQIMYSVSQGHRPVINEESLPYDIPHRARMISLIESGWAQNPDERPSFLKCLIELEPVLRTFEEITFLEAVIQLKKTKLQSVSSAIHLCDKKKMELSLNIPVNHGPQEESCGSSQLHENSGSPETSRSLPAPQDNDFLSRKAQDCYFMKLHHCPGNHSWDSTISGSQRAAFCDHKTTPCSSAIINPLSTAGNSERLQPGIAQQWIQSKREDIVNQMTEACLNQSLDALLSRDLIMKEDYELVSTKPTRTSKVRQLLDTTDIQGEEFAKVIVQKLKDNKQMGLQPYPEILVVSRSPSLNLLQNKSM
T12 sequence (O43293 whole entry): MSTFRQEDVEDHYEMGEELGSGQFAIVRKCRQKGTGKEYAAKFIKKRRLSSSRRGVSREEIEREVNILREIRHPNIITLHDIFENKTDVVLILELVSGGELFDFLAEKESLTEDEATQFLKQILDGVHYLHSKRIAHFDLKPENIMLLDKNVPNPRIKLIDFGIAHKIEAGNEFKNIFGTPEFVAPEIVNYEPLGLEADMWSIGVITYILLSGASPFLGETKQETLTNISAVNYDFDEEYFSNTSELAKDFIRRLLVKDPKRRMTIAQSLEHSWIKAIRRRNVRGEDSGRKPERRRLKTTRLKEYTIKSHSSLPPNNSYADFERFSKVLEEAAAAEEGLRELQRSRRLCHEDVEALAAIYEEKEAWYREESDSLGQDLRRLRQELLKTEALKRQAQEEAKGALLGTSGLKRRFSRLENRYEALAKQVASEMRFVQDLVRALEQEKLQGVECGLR
T29 sequence (P32298 whole entry, the tested form may be a part): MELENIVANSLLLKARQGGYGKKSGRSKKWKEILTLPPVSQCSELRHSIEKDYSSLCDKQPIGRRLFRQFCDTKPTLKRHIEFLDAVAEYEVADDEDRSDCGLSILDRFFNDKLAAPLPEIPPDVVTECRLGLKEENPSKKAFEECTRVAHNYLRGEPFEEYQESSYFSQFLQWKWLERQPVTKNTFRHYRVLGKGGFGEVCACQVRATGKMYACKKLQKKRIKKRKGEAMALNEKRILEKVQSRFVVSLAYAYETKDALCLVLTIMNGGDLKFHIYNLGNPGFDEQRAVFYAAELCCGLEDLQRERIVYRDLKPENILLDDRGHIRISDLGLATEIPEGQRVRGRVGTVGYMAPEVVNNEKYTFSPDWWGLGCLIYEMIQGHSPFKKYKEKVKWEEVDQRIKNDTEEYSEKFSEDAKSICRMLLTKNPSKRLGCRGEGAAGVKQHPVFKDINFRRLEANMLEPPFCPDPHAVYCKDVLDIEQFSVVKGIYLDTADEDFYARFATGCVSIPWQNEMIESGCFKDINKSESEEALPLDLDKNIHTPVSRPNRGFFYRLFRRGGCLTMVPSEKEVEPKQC
T9 sequence (P50750 whole entry, the tested form may be a part): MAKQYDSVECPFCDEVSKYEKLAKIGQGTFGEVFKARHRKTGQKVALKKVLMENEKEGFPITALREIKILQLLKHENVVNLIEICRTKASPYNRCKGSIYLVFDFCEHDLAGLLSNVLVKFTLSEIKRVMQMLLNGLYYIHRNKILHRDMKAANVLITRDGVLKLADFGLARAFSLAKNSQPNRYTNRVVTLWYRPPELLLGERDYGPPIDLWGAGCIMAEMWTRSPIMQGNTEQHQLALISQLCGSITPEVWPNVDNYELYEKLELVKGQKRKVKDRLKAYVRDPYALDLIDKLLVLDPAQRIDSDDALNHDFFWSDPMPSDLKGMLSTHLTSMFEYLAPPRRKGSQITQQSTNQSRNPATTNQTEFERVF
T9 sequence (O60563 whole entry partner, the tested form may be a part): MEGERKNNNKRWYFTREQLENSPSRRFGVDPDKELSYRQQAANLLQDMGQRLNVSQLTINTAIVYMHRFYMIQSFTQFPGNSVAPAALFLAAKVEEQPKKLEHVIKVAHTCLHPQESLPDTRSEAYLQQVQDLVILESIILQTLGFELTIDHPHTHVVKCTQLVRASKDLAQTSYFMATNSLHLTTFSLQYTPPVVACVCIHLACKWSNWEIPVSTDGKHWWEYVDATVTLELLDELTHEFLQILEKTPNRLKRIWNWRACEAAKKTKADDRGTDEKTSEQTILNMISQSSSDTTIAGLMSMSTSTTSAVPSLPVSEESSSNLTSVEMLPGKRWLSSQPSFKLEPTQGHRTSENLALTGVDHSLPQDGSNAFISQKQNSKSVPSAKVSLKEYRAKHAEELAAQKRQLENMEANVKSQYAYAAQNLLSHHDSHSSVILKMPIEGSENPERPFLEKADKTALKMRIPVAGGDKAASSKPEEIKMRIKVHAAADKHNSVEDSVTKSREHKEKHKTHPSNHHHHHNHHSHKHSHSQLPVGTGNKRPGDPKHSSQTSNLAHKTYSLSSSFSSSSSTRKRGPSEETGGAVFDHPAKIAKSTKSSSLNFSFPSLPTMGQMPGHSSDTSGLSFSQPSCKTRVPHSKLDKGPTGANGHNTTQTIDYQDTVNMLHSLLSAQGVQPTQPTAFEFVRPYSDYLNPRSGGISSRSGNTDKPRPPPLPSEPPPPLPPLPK
T10 sequence (Q8NE63 whole entry, the tested form may be a part): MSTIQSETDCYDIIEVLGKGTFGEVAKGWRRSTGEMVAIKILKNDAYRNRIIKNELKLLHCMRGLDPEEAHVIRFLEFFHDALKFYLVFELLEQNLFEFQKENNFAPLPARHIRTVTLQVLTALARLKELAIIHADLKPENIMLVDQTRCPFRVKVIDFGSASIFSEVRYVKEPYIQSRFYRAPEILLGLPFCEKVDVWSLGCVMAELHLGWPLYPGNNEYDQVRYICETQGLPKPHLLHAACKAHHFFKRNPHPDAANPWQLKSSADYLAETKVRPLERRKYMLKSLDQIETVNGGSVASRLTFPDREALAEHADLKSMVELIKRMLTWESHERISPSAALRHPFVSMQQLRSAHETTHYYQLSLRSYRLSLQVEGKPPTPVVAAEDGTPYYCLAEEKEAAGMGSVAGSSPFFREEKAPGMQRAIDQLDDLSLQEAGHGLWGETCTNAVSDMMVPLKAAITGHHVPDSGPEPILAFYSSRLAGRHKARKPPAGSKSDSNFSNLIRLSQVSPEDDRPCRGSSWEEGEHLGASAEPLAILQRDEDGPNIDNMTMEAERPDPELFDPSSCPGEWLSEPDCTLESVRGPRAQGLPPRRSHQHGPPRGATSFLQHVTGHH

How did the inhibition at 1 µM (PAK6) turn out when `C=CC(=O)Nc1ccc(C(=O)N2CC[C@@H](Nc3ncc(C#N)cn3)C2)cc1` [Compound 4, (R)-N-(4-(3-((5-cyanopyrimidin-2-yl)amino)pyrrolidine-1-carbonyl)phenyl)acrylamide] was run?
Its inhibition at 1 µM is 4%.

What about the inhibition at 1 µM (GSG2) of the same molecule?
The inhibition at 1 µM was 13%.

And the inhibition at 1 µM (INSR)?
The inhibition at 1 µM was 8%.

And the inhibition at 1 µM (MATK)?
The inhibition at 1 µM was -3%.

What about the inhibition at 1 µM (DAPK2) of the same molecule?
The inhibition at 1 µM was 9%.

And the inhibition at 1 µM (IRAK4)?
The inhibition at 1 µM was 0%.

What about the inhibition at 1 µM (CDC7/DBF4) of the same molecule?
Its inhibition at 1 µM is -2%.

What about the inhibition at 1 µM (SGK3) of the same molecule?
The inhibition at 1 µM was 5%.

What about the inhibition at 1 µM (CDK9/CycT1) of the same molecule?
The inhibition at 1 µM was 27%.

What about the inhibition at 1 µM (HIPK4) of the same molecule?
Its inhibition at 1 µM is 11%.

And the inhibition at 1 µM (FLT3)?
Its inhibition at 1 µM is -8%.

And the inhibition at 1 µM (DAPK3)?
The inhibition at 1 µM was 0%.

What about the inhibition at 1 µM (ZAK) of the same molecule?
Its inhibition at 1 µM is -4%.

What about the inhibition at 1 µM (FYN) of the same molecule?
Its inhibition at 1 µM is -2%.

What about the inhibition at 1 µM (ERK1) of the same molecule?
Its inhibition at 1 µM is -4%.

What about the inhibition at 1 µM (PIM1) of the same molecule?
Its inhibition at 1 µM is 3%.

What about the inhibition at 1 µM (CK1gamma1) of the same molecule?
The inhibition at 1 µM was -11%.

And the inhibition at 1 µM (PRKG2)?
The inhibition at 1 µM was -6%.

What about the inhibition at 1 µM (GRK7) of the same molecule?
The inhibition at 1 µM was -5%.

And the inhibition at 1 µM (SIK2)?
Its inhibition at 1 µM is -4%.

And the inhibition at 1 µM (PKCbeta1)?
The inhibition at 1 µM was 4%.

What about the inhibition at 1 µM (PASK) of the same molecule?
The inhibition at 1 µM was -5%.

What about the inhibition at 1 µM (YES) of the same molecule?
Its inhibition at 1 µM is -5%.

What about the inhibition at 1 µM (TSF1) of the same molecule?
The inhibition at 1 µM was 6%.

And the inhibition at 1 µM (RIPK2)?
The inhibition at 1 µM was 5%.

What about the inhibition at 1 µM (SAK) of the same molecule?
The inhibition at 1 µM was -11%.

What about the inhibition at 1 µM (PAK4) of the same molecule?
The inhibition at 1 µM was -3%.

What about the inhibition at 1 µM (CAMKID) of the same molecule?
The inhibition at 1 µM was 0%.

What about the inhibition at 1 µM (GRK4) of the same molecule?
Its inhibition at 1 µM is -13%.

What about the inhibition at 1 µM (CK2alpha2) of the same molecule?
The inhibition at 1 µM was -14%.

What about the inhibition at 1 µM (PLK3) of the same molecule?
The inhibition at 1 µM was 13%.
